In one assay the test system is Retinal VEGF mRNA. In words: Retinal VEGF mRNA of diabetic rats, semi-quantitative RT-PCR. The format is in vivo, rat. The conditions noted are these: STZ-diabetic SHRSP rats. As for the experimental part:
• Compound 1: (±)-1-(cyclohexyloxycarbonyloxy) ethyl-2-ethoxy-1-[[2′-(1H-tetrazol-5-yl)biphenyl-4-yl]methyl]-1H-benzimidazole-7-carboxylate (Compound 1) Method: Streptozotocin (STZ) was intravenously injected at a dose of 30 mg/kg to 10-week old male rats (Stroke-Prone Spontaneously Hypertensive Rat:SHRSP). When 9 weeks had passed since the injection of STZ, the blood sugar values of the rats were measured. The rats were divided into 3 groups, that is, a group before the administration, a solvent-administered control group and an administered group with the compound 1 (3 mg/kg/day, p.o.). Four weeks after, the blood sugar values and the retinal potentials were measured, and then, the rats were killed by bleeding by discission of the aorta abdominalis under deep ether anesthetization so as to remove the eyeball. A suspension of the compound 1 in a 0.5% methylcellulose-containing physiological saline was orally administered to the rats once a day for 4 weeks. […]
VEGF mRNA in the retina was quantitatively determined as follows. […] The quantity of VEGF mRNA was measured from the extracted RNA by the semi-quantitative RT-PCR process (ABI PRISM 7700: Perkin Elmer) using two kinds of fluorescent probes (FAM: VEGF, and VIC: β-action). The quantity of VEGF mRNA was corrected by the quantity of β-action mRNA and calculated provided that the quantity of VEGF mRNA of SD rat retina was defined as 1.

In a further assay the test system is Diabetic Rats. Nature of the assay: Retinal potential: latency of oscillatory potential peaks of diabetic rats. The format is in vivo, rat. The conditions noted are these: STZ-diabetic SHRSP rats. How it is done:
• Compound 1: (±)-1-(cyclohexyloxycarbonyloxy) ethyl-2-ethoxy-1-[[2′-(1H-tetrazol-5-yl)biphenyl-4-yl]methyl]-1H-benzimidazole-7-carboxylate (Compound 1) Method: Streptozotocin (STZ) was intravenously injected at a dose of 30 mg/kg to 10-week old male rats (Stroke-Prone Spontaneously Hypertensive Rat:SHRSP). When 9 weeks had passed since the injection of STZ, the blood sugar values of the rats were measured. The rats were divided into 3 groups, that is, a group before the administration, a solvent-administered control group and an administered group with the compound 1 (3 mg/kg/day, p.o.). Four weeks after, the blood sugar values and the retinal potentials were measured, and then, the rats were killed by bleeding by discission of the aorta abdominalis under deep ether anesthetization so as to remove the eyeball. A suspension of the compound 1 in a 0.5% methylcellulose-containing physiological saline was orally administered to the rats once a day for 4 weeks. On the other hand, 23-week old SHRSP rats were used as an untreated group.
The retinal potential was measured by the following method. The subject animal was subjected to dark adaptation in a dark room for 90 to 120 minutes, and then, anesthetized with ketamine hydrochloride (50 mg/kg, i.m.) and immobilized with xylazine (2 mg/kg, i.m.). The limb and the head of the subject animal were fixed with a string. Mydriatic was dropped on the left eyeball to widen the pupil, and a contact lens type electrode was placed on the cornea using a contact lens-wearing auxiliary. A xenon lamp (1.2 joules) was set at a position 10 cm distant in the forward direction from the eye to be tested (the left eye), and light stimuli were controlled by a light stimulator (SLS-3100 manufactured by Nippon Koden K.K.). The retinal potential generated by light stimuli (0.5 Hz, 16 times) was amplified by a Neuropack (MEB-5100 manufactured by Nippon Koden K.K., Low cut 0.5 Hz, and sweeping time: 200 msec). The results were added and averaged. The latency of oscillatory potential peaks (O1, O2 and O3) was counted from the resultant waveforms.

[1] abbreviates: 3 mg/kg/day p.o. for 4 weeks, n = 4, average ± standard deviation.

On to `CCOc1nc2cccc(C(=O)OC(C)OC(=O)OC3CCCCC3)c2n1Cc1ccc(-c2ccccc2-c2nnn[nH]2)cc1` (racemic) [Compound 1, (±)-1-(cyclohexyloxycarbonyloxy) ethyl-2-ethoxy-1-[[2′-(1H-tetrazol-5-yl)biphenyl-4-yl]methyl]-1H-benzimidazole-7-carboxylate], for which the “Retinal VEGF mRNA (VEGF mRNA of SD rat determined as 1)” value in the assay with Retinal VEGF mRNA (3 mg/kg/day p.o. for 4 weeks, n = 4, corrected by β-action mRNA, average ± standard deviation) turned out to be 0.99 ± 0.14. Also, the “Quantity of VEGF mRNA in the retinal tissue, in words” value in the assay with Retinal VEGF mRNA (3 mg/kg/day p.o., 4 weeks) is “significantly decreased”. In addition, in the assay with Diabetic Rats (setting [1]), the “Latency of oscillatory potential peak O1” value was 23.81 ± 0.42 ms, the “Latency of oscillatory potential peak O2” value came to 32.88 ± 1.17 ms and the “Latency of oscillatory potential peak O3” value is 43.39 ± 1.86 ms. Also, the “Latency of oscillatory potential peaks O1, O2 and O3, in words” value in the assay on Diabetic Rats (3 mg/kg/day p.o., 4 weeks) was “latency was reduced in any of the O1, O2 and O3”. Besides, in the assay on Diabetic Rats (3 mg/kg/day p.o., 4 weeks, Dunnett's t Test), the “Latency of oscillatory potential peak O1 compared with the control group, in words” value is recorded as “significant improvement”.

(Values after US7064141B1, “Method for preventing, treating or inhibiting development of simple retinopathy and preproliferative retinopathy” (Takeda Pharmaceutical Company Limited, priority 1999, dated 2006).)
